Data published in publication PMC3986099, “Development of a Radioiodinated Triazolopyrimidine Probe for Nuclear Medical Imaging of Fatty Acid Binding Protein 4” (PLoS ONE, 2014).

Experiments:
[1] = test system: differentiated THP-1 cells; assay: Cell uptake study and inhibition assay; type: cell-based, Human; settings: 4 °C, 3 hr
Protocol: Human monocytic leukemia THP-1 cells were obtained from ATCC and rat glioma C6 cells were from the Health Science Research Resources Bank. THP-1 cells were cultured in Gibco RPMI 1640 medium (Nissui Pharmaceutical Co., Ltd.) supplemented with 10% heat-inactivated fetal bovine serum (Nichirei Bioscience Inc.), 50 U/ml penicillin and 50 µg/ml streptomycin (Nacalai Tesque, Inc.) at 37 °C in 5% CO2. C6 cells were cultured in McCoy's 5A Modified Medium supplemented with 10% heat-inactivated fetal bovine serum, 50 U/ml penicillin and 50 µg/ml streptomycin at 37 °C in 5% CO2. For cell uptake assays, THP-1 monocytes were differentiated into macrophages by incubation with 100 nM phorbol 12-myristate 13-acetate for 24 hr.
For the cell uptake study, tubes were pre-incubated with 50 mg/ml skim milk in PBS (-) at 4 °C for 3 hr. Then, 0.4 ml of differentiated THP-1 cells (1.0×10^6 cells/tube) in PBS (-) and 0.05 ml [^125I]TAP1 in PBS (-) (0.008 MBq, 5% ethanol, v/v) were added to the tubes, and the cells were incubated at 4 °C for 3 hr. […] The radioactivity of the tubes was measured with a well-type γ-counter. […] Binding ratios were calculated as (radioactivity in tubes)/(total applied radioactivity)/(protein abundance) ×100 (%Dose/mg protein). […] After incubation at 4 °C for 3 hr, the radioactivity measurement and calculation of the binding ratio were performed as described above. […]

[2] = test system: 3T3-L1 preadipocytes and differentiated adipocytes; assay: Cell uptake study in adipocytes and preadipocytes; type: cell-based, Murine; settings: concentration-dependent, 0-100 μM
Protocol: Murine 3T3-L1 preadipocytes were obtained from ATCC and cultured in Dulbecco's Modified Eagle Medium (Nissui Pharmaceutical Co., Ltd.) supplemented with 10% heat-inactivated fetal bovine serum, 50 U/ml penicillin and 50 μg/ml streptomycin at 37 °C in 5% CO2. For cell uptake assay, differentiation of 3T3-L1 cells was performed as described previously. Briefly, two days after confluence, the medium was replaced with DMEM containing 10% FBS and inducers ([…], 10 μg/ml insulin, 0.5 mM 3-isobutyl-1-methylxanthine and 10 μM pioglitazone hydrochloride) for 2 days. The medium was then changed to DMEM supplemented with 10% FBS, 10 μg/ml insulin and 10 μM pioglitazone hydrochloride, and then incubated for 2 days. Then, the medium was changed to DMEM supplemented with 10% FBS and 10 μM pioglitazone hydrochloride every other day. After 8-10 days, the differentiated adipocytes were used for experiments.
For the cell uptake study using adipocytes, the medium of 24-well plate, in which the differentiated adipocytes or undifferentiated 3T3-L1 cells are cultured, was removed. […] Following the measurement of the radioactivity of collected cell lysate with a well-type γ-counter, protein determination was performed. […] Binding ratios were calculated as (radioactivity in collected cells)/(total applied radioactivity)/(protein abundance) x 100 (%Dose/mg protein).

his-tagged FABP4 [3] = molecular target: T1, his-tagged FABP4 (Homo sapiens, UniProt P15090); assay: Competition binding assay with 1,8-ANS as tracer
T1 construct: purchased Cayman Chemical Company
Protocol: In accordance with previous reports, competition binding experiments were performed using 8-anilino-1-naphthalene sulfonic acid (1,8-ANS) as the tracer. Briefly, a mixture containing 0.12 ml phosphate buffer (50 mM, pH = 7.4), 0.03 ml TAP1 (2.6 mM–300 nM) in DMSO, 0.075 ml 1,8-ANS (24 nM) in phosphate buffer (0.2% ethanol, v/v) and 0.075 ml his-tagged FABP4 (1 µM) in phosphate buffer was incubated at room temperature for 5 min. […] The inhibition constants (K i) were calculated using the Cheng-Prusoff equation: K i = IC50/(1+[L]/K d), where [L] is the 1,8-ANS concentration and K d is the 1,8-ANS dissociation constant.

[4] = Parallel artificial membrane permeation assay (PAMPA); type: in vitro ADME; settings: room temperature, read-out: permeability (PAMPA)
Protocol: The permeability of TAP1 was measured using a pre-coated PAMPA plate system (BD Biosciences) following the manufacturer's procedures. Briefly, TAP1 (100–200 µM, 0.2 ml) was added to donor plate and PBS (-) (0.2 ml) was added to the acceptor plate in the PAMPA plate assembly. After coupling both plates together and incubating at room temperature for 5 hr, 0.15 ml of the sample was obtained from each plate and 0.15 ml of the original compound solution was also obtained. Then, the absorbance of each sample was measured at 280 nm. The permeability was calculated as: Pe (cm/s) = (−ln[1−CA/Cequilibrium])/St (1/VD+1/VA) and Cequilibrium = [CDVD+CAVA]/(VD+VA). CD = C0 (AD−Abuffer)/(A0−Abuffer) and CA = C0 (AA−Abuffer)/(A0−Abuffer). C0 is the concentration of the start sample and A0, Abuffer, AD and AA are absorbances of the starting sample, buffer, donor and acceptor, respectively. VD and VA are the donor and acceptor volumes, respectively. S is the membrane area and t is the incubation time.

his-tagged FABP4 [5] = molecular target: T1, his-tagged FABP4; assay: Selectivity binding assay with FABP immobilized on Ni-NTA magnetic agarose beads
Protocol: For the selectivity binding assay, his-tagged FABP3 (0.75 mg/ml), FABP4 (0.75 mg/ml) and FABP5 (0.70 mg/ml) in 50 mM phosphate buffer containing 100 mM NaCl (20% glycerol, v/v, pH = 7.2) were used. Immobilization was performed following the manufacturer's procedures. Each solution of his-tagged FABP3 ([…], 1.5 µg), FABP4 (0.002 ml, 1.5 µg) or FABP5 (0.002 ml, 1.4 µg) was incubated with 0.02 ml Ni-NTA Magnetic Agarose Beads (Qiagen) and 0.5 ml protein binding buffer (50 mM NaH2PO4, 300 mM NaCl, 10 mM imidazole, pH = 8.0) at room temperature for 1 hr. After supernatant removal, protein binding buffer with 1% BSA was added, and the mixture was incubated at room temperature for 30 min. After removal of the supernatant, 0.4 ml of interaction buffer (50 mM NaH2PO4, 300 mM NaCl, 10 mM imidazole, and 0.005% Tween, v/v, pH = 8.0) and 0.05 ml [^125I]TAP1 (0.01 MBq) in interaction buffer (5% ethanol, v/v) were added. For measurement of non-specific binding, 0.05 ml of nonradioactive TAP1 in interaction buffer (5% ethanol, v/v, 11.3 µM) was added with the [^125I]TAP1. After incubation at room temperature for 2 hr, the supernatants were removed, and the beads washed with interaction buffer (5% ethanol, v/v). The radioactivity of beads in the tubes was measured with a well-type γ-counter (1480 Wizard3, PerkinElmer Japan Co., Osaka, Japan). Binding ratios were calculated as (radioactivity of beads)/(total applied radioactivity)/(protein abundance on beads)×100 (%Dose/µg protein).

T1 sequence (P15090 whole entry): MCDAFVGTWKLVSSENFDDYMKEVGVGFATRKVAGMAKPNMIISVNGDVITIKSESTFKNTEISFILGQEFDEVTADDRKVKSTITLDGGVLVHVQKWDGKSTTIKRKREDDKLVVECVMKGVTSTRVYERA

Kd (his-tagged FABP4 [3]) [nM] | Ki (his-tagged FABP4 [3]; competition with 1,8-ANS, FABP4) [nM] | Papp at 5 h [4] [×10⁻⁶ cm/s] | FABP4 binding relative to FABP3 (his-tagged FABP4 [5]; FABP4 over FABP3) | FABP4 binding relative to FABP5 (his-tagged FABP4 [5]; FABP4 over FABP5) | Structure (SMILES) | inhibition of [^125I]TAP1 uptake into differentiated THP-1 cells [1] | inhibition of [^125I]TAP1 uptake into adipocytes [2]
 |  |  |  |  | CCc1c(-c2ccccc2)c(-c2ccccc2)nn1-c1ccccc1-c1cccc(OCC(=O)O)c1 [BMS309403, reference compound] | significantly inhibited | significantly inhibited
1200 |  |  |  |  | O=S(=O)(O)c1cccc2cccc(Nc3ccccc3)c12 [1,8-ANS, 8-anilino-1-naphthalene sulfonic acid, reference compound] |  | 
 | 44.5 ± 9.8 | 12.6 ± 2.9 | more than 10 fold | more than 10 fold | O=c1cc(COc2cccc(I)c2)[nH]c2nc(-c3ccccc3)nn12 [TAP1, 5-{(3-Iodophenoxy)methyl}-2-phenyl-[1], [2], [4]triazolo[1,5-a]pyrimidin-7(4H)-one] | significantly inhibited | 
